{"source": "paper PMC8502442", "about": "(Pharmacology Research & Perspectives, 2021)", "key": {"[1]": {"details": "male, Sprague-Dawley, rat, intravenous, n = 3, mean ± SD"}, "[2]": {"details": "rat, cited from earlier work"}, "[3]": {"details": "humans; cited from earlier work"}, "parental MDCK cell": {"tested_on": "parental MDCK cell", "details": "parental MDCK cell assay; cited from earlier work"}, "[4]": {"experiment": "Rat pharmacokinetics following an IV single bolus", "format": "in vivo", "details": "plasma, 1 mg/kg"}, "[5]": {"details": "rat microdialysis, brain versus blood; cited from earlier work"}, "[6]": {"details": "K puu liver, ratio of unbound liver concentration to unbound blood concentration at steady state"}, "[7]": {"details": "K puu muscle, ratio of unbound muscle concentration to unbound blood concentration at steady state"}}, "note": "Where two headings read alike, the source gives them in different places."}
{"compound": "Cc1cc(=O)n(-c2ccccc2)n1C", "note": "[Antipyrine]", "values": [{"measurement": "Kp", "setting": "[1]; [6]", "result": "0.932 ± 0.178"}, {"measurement": "Kp", "setting": "[1]; [7]", "result": "0.771 ± 0.215"}, {"measurement": "reported plasma CL", "setting": "[2]; ref 24, 25, 26, 27", "result": 4.80, "unit": "mL/min/kg"}]}
{"compound": "CC(C)NCC(O)COc1ccc(CC(N)=O)cc1", "note": "(stereo not shown) [Atenolol, atenolol]", "values": [{"measurement": "share eliminated via the kidneys", "setting": "[3]", "result": "> 95", "unit": "%"}]}
{"compound": "NC(=O)N1c2ccccc2C=Cc2ccccc21", "note": "[Carbamazepine, carbamazepine]", "values": [{"measurement": "Kp", "setting": "[1]; [6]", "result": "0.913 ± 0.169"}, {"measurement": "Kp", "setting": "[1]; [7]", "result": "1.02 ± 0.27"}, {"measurement": "P app", "setting": "parental MDCK cell", "result": 27.5, "unit": "×10⁻⁶ cm/s"}, {"measurement": "reported plasma CL", "setting": "[2]; ref 24, 25, 26, 27", "result": 15.0, "unit": "mL/min/kg"}, {"measurement": "N-glucuronide as share of the administered dose", "setting": "[2]; ref 34", "result": "20%–30%"}]}
{"compound": "C[C@H]1O[C@@H](O[C@H]2[C@@H](O)C[C@H](O[C@H]3[C@@H](O)C[C@H](O[C@H]4CC[C@@]5(C)[C@H](CC[C@@H]6[C@@H]5C[C@@H](O)[C@]5(C)[C@@H](C7=CC(=O)OC7)CC[C@]65O)C4)O[C@@H]3C)O[C@@H]2C)C[C@H](O)[C@@H]1O", "note": "[Digoxin, digoxin]", "values": [{"measurement": "reported plasma CL", "setting": "[2]; ref 20, 26, 36, 37", "result": 17.3, "unit": "mL/min/kg"}, {"measurement": "reported plasma CL", "setting": "[2]; ref 24, 25, 26, 27", "result": 17.3, "unit": "mL/min/kg"}, {"measurement": "non-renal CL (biliary excretion + hepatic metabolism) as share of total CL", "setting": "[2]; ref 26", "result": "70%–80%"}, {"measurement": "renal CL as share of total CL", "setting": "[2]; ref 26", "result": "20%–30%"}]}
{"compound": "COc1ccc([C@@H]2Sc3ccccc3N(CCN(C)C)C(=O)[C@@H]2OC(C)=O)cc1", "note": "[Diltiazem, diltiazem]", "values": [{"measurement": "reported plasma CL", "setting": "[2]; ref 18, 19, 20, 21, 22, 23", "result": 90, "unit": "mL/min/kg"}]}
{"compound": "NCC1(CC(=O)O)CCCCC1", "note": "[Gabapentin, gabapentin]", "values": [{"measurement": "Kp", "setting": "[1]; [6]", "result": 2.23}, {"measurement": "Kp", "setting": "[1]; [7]", "result": "1.39 ± 0.51"}, {"measurement": "Vd", "setting": "[4]", "result": "0.451 ± 0.001", "unit": "L/kg"}, {"measurement": "clearance", "setting": "[4]", "result": "1.53 ± 0.31", "unit": "mL/min/kg"}, {"measurement": "half-life", "setting": "[4]", "result": "3.58 ± 0.87", "unit": "h"}]}
{"compound": "CC12CC3CC(C)(C1)CC(N)(C3)C2", "note": "[Memantine, memantine]", "values": [{"measurement": "Kp", "setting": "[1]; [6]", "result": 1.56}, {"measurement": "Kp", "setting": "[1]; [7]", "result": 2.13}, {"measurement": "reported K puu,brain", "setting": "[5]", "result": 1.80}, {"measurement": "reported plasma CL", "setting": "[2]; ref 18, 19, 20, 21, 22, 23", "result": 69, "unit": "mL/min/kg"}, {"measurement": "plasma CL", "setting": "[2]; ref 47", "result": "about 45 ml/min/kg"}, {"measurement": "renal CL", "setting": "[2]; ref 47", "result": "about 13 ml/min/kg"}, {"measurement": "Vd", "setting": "[4]", "result": "7.36 ± 1.58", "unit": "L/kg"}, {"measurement": "clearance", "setting": "[4]", "result": "60.5 ± 9.9", "unit": "mL/min/kg"}, {"measurement": "half-life", "setting": "[4]", "result": "1.72 ± 0.03", "unit": "h"}]}
{"compound": "CC1COc2c(N3CCN(C)CC3)c(F)cc3c(=O)c(C(=O)O)cn1c23", "note": "(stereo not shown) [Ofloxacin, ofloxacin]", "values": [{"measurement": "Kp", "setting": "[1]; [6]", "result": "~0.501"}, {"measurement": "Kp", "setting": "[1]; [7]", "result": "0.641 ± 0.206"}, {"measurement": "reported plasma CL", "setting": "[2]; ref 20, 26, 36, 37", "result": 27.5, "unit": "mL/min/kg"}, {"measurement": "non-renal CL (biliary excretion + metabolism) as share of total CL", "setting": "[2]; ref 36", "result": "about 45%"}, {"measurement": "renal CL", "setting": "[2]; ref 36", "result": "about 15 ml/min/kg"}, {"measurement": "renal CL as share of total CL", "setting": "[2]; ref 36", "result": 55, "unit": "%"}, {"measurement": "total CL", "setting": "[2]; ref 36", "result": 27.5, "unit": "mL/min/kg"}]}
{"compound": "CC(C)NCC(O)COc1cccc2ccccc12", "note": "(stereo not shown) [Propranolol, propranolol]", "values": [{"measurement": "P app", "setting": "parental MDCK cell", "result": 11, "unit": "×10⁻⁶ cm/s"}, {"measurement": "reported plasma CL", "setting": "[2]; ref 18, 19, 20, 21, 22, 23", "result": "70 to 90", "unit": "mL/min/kg"}]}
{"compound": "COc1ccc(CN(CCN(C)C)c2ccccn2)cc1", "note": "[Pyrilamine, pyrilamine]", "values": [{"measurement": "reported K puu,brain", "setting": "[5]", "result": 2.50}, {"measurement": "Vd", "setting": "[4]", "result": "12.6 ± 1.6", "unit": "L/kg"}, {"measurement": "clearance", "setting": "[4]", "result": "167 ± 24", "unit": "mL/min/kg"}, {"measurement": "half-life", "setting": "[4]", "result": "2.16 ± 0.63", "unit": "h"}]}
{"compound": "C=C[C@H]1C[N@@]2CC[C@H]1C[C@@H]2[C@@H](O)c1ccnc2ccc(OC)cc12", "note": "[Quinidine, quinidine]", "values": [{"measurement": "Kp", "setting": "[1]; [6]", "result": "0.677 ± 0.27"}, {"measurement": "Kp", "setting": "[1]; [7]", "result": "1.75 ± 0.64"}]}
